Reference: US8987265B2, “Substituted 1,3,5-triazine derivatives of fused bicyclic oxalamide compounds for treatment of Hepatitis C” (priority 2012, dated 2015)
Read-outs that look alike come from different tables or passages of the source.

Tested on: HCV pseudoparticles, genotype 1a (H77C) E1 and E2 envelope
Experiment: HCV pseudoparticle infection assay (luciferase, Huh7 cells)
Type: cell-based
Conditions: Hepatitis C virus, Huh-7, 48 h

Compound	EC50 (read-out: EC50 (nM) 1a (H77C)) [nM]	EC50 (read-out: EC50 (nM) 1a H77C)) [nM]
Cc1ccc(NC(=O)C(=O)N2CC3CN(C(=O)c4ccc(Nc5nc(NC6(c7ccc(Cl)cc7)CC6)nc(OCC(F)(F)F)n5)cc4)CC3C2)cc1 (centres unmarked) [Compound 1001]	0.01 to 10	0.12
O=C(NCc1ccc(F)cc1)C(=O)N1CC2CN(C(=O)c3ccc(Nc4nc(NC5(c6ccc(Cl)cc6)CC5)nc(OCC(F)(F)F)n4)cc3)CC2C1 (centres unmarked) [Compound 1002]	0.01 to 10	
NC(=O)C(=O)N1CC2CN(C(=O)c3ccc(Nc4nc(NC5(c6ccc(Cl)cc6)CC5)nc(OCC(F)(F)F)n4)cc3)CC2C1 (centres unmarked) [Compound 1003]	0.01 to 10	
O=C(C(=O)N1CC2CN(C(=O)c3ccc(Nc4nc(NC5(c6ccc(Cl)cc6)CC5)nc(OCC(F)(F)F)n4)cc3)CC2C1)N1CCOCC1 (centres unmarked) [Compound 1004]	0.01 to 10	
CN(C)C(=O)C(=O)N1CC2CN(C(=O)c3ccc(Nc4nc(NC5(c6ccc(Cl)cc6)CC5)nc(OCC(F)(F)F)n4)cc3)CC2C1 (centres unmarked) [Compound 1005]	0.01 to 10	2.68
O=C(Nc1cccc(F)c1)C(=O)N1CC2CN(C(=O)c3ccc(Nc4nc(NC5(c6ccc(Cl)cc6)CC5)nc(OCC(F)(F)F)n4)cc3)CC2C1 (centres unmarked) [Compound 1006]	0.01 to 10	
O=C(Nc1nncs1)C(=O)N1CC2CN(C(=O)c3ccc(Nc4nc(NC5(c6ccc(Cl)cc6)CC5)nc(OCC(F)(F)F)n4)cc3)CC2C1 (centres unmarked) [Compound 1007]	0.01 to 10	
O=C(Nc1ccc(F)cc1)C(=O)N1CC2CN(C(=O)c3ccc(Nc4nc(NC5(c6ccc(Cl)cc6)CC5)nc(OCC(F)(F)F)n4)cc3)CC2C1 (centres unmarked) [Compound 1008]	0.01 to 10	
Cc1cc(NC(=O)C(=O)N2CC3CN(C(=O)c4ccc(Nc5nc(NC6(c7ccc(Cl)cc7)CC6)nc(OCC(F)(F)F)n5)cc4)CC3C2)no1 (centres unmarked) [Compound 1009]	0.01 to 10	
O=C(Nc1cc(F)cc(F)c1)C(=O)N1CC2CN(C(=O)c3ccc(Nc4nc(NC5(c6ccc(Cl)cc6)CC5)nc(OCC(F)(F)F)n4)cc3)CC2C1 (centres unmarked) [Compound 1010]	0.01 to 10	
O=C(Nc1ccccc1)C(=O)N1CC2CN(C(=O)c3ccc(Nc4nc(NC5(c6ccc(Cl)cc6)CC5)nc(OCC(F)(F)F)n4)cc3)CC2C1 (centres unmarked) [Compound 1011]	0.01 to 10	
CC(C)CNC(=O)C(=O)N1CC2CN(C(=O)c3ccc(Nc4nc(NC5(c6ccc(Cl)cc6)CC5)nc(OCC(F)(F)F)n4)cc3)CC2C1 (centres unmarked) [Compound 1012]	0.01 to 10	
O=C(C(=O)N1CC2CN(C(=O)c3ccc(Nc4nc(NC5(c6ccc(Cl)cc6)CC5)nc(OCC(F)(F)F)n4)cc3)CC2C1)N1CCCCC1 (centres unmarked) [Compound 1013]	0.01 to 10	
O=C(C(=O)N1CC2CN(C(=O)c3ccc(Nc4nc(NC5(c6ccc(Cl)cc6)CC5)nc(OCC(F)(F)F)n4)cc3)CC2C1)N1CCc2ccccc2C1 (centres unmarked) [Compound 1014]	0.01 to 10	
O=C(NC1CCCCC1)C(=O)N1CC2CN(C(=O)c3ccc(Nc4nc(NC5(c6ccc(Cl)cc6)CC5)nc(OCC(F)(F)F)n4)cc3)CC2C1 (centres unmarked) [Compound 1015]	0.01 to 10	
Cc1nnc(NC(=O)C(=O)N2CC3CN(C(=O)c4ccc(Nc5nc(NC6(c7ccc(Cl)cc7)CC6)nc(OCC(F)(F)F)n5)cc4)CC3C2)s1 (centres unmarked) [Compound 1016]	0.01 to 10	
CNC(=O)C(=O)N1CC2CN(C(=O)c3ccc(Nc4nc(NC5(c6ccc(Cl)cc6)CC5)nc(OCC(F)(F)F)n4)cc3)CC2C1 (centres unmarked) [Compound 1017]	10 to 1000	11.1
O=C(Nc1ccc(F)cc1F)C(=O)N1CC2CN(C(=O)c3ccc(Nc4nc(NC5(c6ccc(Cl)cc6)CC5)nc(OCC(F)(F)F)n4)cc3)CC2C1 (centres unmarked) [Compound 1018]	0.01 to 10	
CCc1nnc(NC(=O)C(=O)N2CC3CN(C(=O)c4ccc(Nc5nc(NC6(c7ccc(Cl)cc7)CC6)nc(OCC(F)(F)F)n5)cc4)CC3C2)s1 (centres unmarked) [Compound 1019]	0.01 to 10	
O=C(Nc1nccs1)C(=O)N1CC2CN(C(=O)c3ccc(Nc4nc(NC5(c6ccc(Cl)cc6)CC5)nc(OCC(F)(F)F)n4)cc3)CC2C1 (centres unmarked) [Compound 1020]	0.01 to 10	
